In data set [1] the test system is collagenase. The note with it: in words; cited from earlier work.
The test system of a further data set is corneal ulcerations. The note with it: directly applied to the eye, alkali burned rabbit; cited from earlier work.
The target of data set [2] is T1, human skin fibroblast collagenase (Homo sapiens, UniProt P03956).
T1 construct: endogenous in cells; host or cells: human skin fibroblasts
T1 sequence (P03956 100-469): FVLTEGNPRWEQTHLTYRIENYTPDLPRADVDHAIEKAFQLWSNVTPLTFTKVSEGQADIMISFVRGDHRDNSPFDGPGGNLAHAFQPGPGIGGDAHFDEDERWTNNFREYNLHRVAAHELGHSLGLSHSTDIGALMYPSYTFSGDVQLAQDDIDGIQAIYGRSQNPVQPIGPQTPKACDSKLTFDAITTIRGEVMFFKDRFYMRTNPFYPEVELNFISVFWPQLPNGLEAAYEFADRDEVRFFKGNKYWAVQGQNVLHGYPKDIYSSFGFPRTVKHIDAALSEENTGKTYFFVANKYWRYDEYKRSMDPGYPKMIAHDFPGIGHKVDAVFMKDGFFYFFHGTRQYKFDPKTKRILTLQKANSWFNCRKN
In words: Collagenase Assay, Test Code 006 (degradation of 14C-labeled native collagen fibrils). Format: biochemical. The note with it: 30 μg./ml., 37° C., 16 hours; based on the 0% value for the enzyme control. The protocol:
An active inhibitor would inhibit the degradation of the collagen fibril; (iii) Leukocyte Neutral Proteases Inhibitor Assay--This test measures the ability of neutral proteases derived from human leukocytes to degrade radiolabeled proteoglycans entrapped in polyacrylamide beads.
(i) Collagenase Assay--Test Code 006
Collagenase assays were performed by a modification of the method of Harper, et al., Biochem., 10, 3035 (1971). In a typical assay (total volume of 0.45 ml.), 100 μl. of the activated enzyme was added to the ^14 C-labeled collagen fibrils (250 μl.) followed by 100 μl. of 50 mM cacodylate, pH 7.4, containing 5 mM calcium chloride. After incubation at 37° C. for 16 hours, the tubes were centrifuged in a Beckman microfuge for five minutes at full speed. An aliquot (200 μl.) of the supernatant, representing collagenase digestion products of the fibril, was assayed for radioactivity. The effect of the test compound on collagen degradation by collagenase was examined as follows:
The test compound (in distilled water) was added at a test concentration of 30 μg./ml. to the assay tubes containing active collagenase (total volume 450 μl.) and after 16 hours the amount of radioactivity in the supernatant was determined. Appropriate blanks and trypsin controls were run in parallel.
The activities are expressed as % inhibition (lowering) of collagenase activity, i.e. based on the 0% value for the enzyme control.

For a further data set, the system named is corneal ulceration. The note with it: human; cited from earlier work.
For data set [3] the following is noted: compared with cysteine; cited from earlier work.
Data set [4] concerns collagenase. Particulars: in words; collagenase or a proteinase contaminant in the collagenase preparation; cited from earlier work.

These results are taken from US4275076A, “Substituted naphthoic acids” (American Cyanamid Company, priority 1980, dated 1981).

In the case of sodium auriothiomalate, the collagenase inhibition entry in the data set on collagenase [1] is reported as “collagenase inhibitors”.
Turning to `O=C([O-])CN(CCN(CC(=O)[O-])CC(=O)[O-])CC(=O)[O-].[Ca+2].[Ca+2]` [Calcium ethylenediaminetetraacetate], in the data set with corneal ulcerations, the frequency of ulceration result is on record as “reduce the frequency of ulceration”.
What is called inhibition is the share of the control response that was lost under treatment. A lower inhibition goes with little suppression. On to `CCOC(=O)c1cc(OC(C)=O)c2cc(NC(=O)c3cccc(NC(=O)Nc4cccc(C(=O)Nc5ccc6cc(C(=O)OCC)cc(OC(C)=O)c6c5)c4)c3)ccc2c1` [6,6'-[Ureylenebis(m-phenylenecarbonylimino)]bis[4-hydroxy-2-naphthoic acid]diethyl ester diacetate], for which, in data set [2], at 30 µg/mL the inhibition was 7%.
As for `CC(=O)N[C@@H](CS)C(=O)O` [acetylcysteine], the “treatment of acute and chronic corneal ulceration” value in the data set with corneal ulceration is “effective”. The stability result in data set [3] is recorded as “greater stability”. Further, the frequency of ulceration entry with corneal ulcerations is recorded as “reduce the frequency of ulceration”.
Turning to `CCOC(=O)c1cc(O)c2cc(NC(=O)c3cccc(NC(=O)Nc4cccc(C(=O)Nc5ccc6cc(C(=O)OCC)cc(O)c6c5)c4)c3)ccc2c1` [6,6'-[Ureylenebis(m-phenylenecarbonylimino)]bis[4-hydroxy-2-naphthoic acid] diethyl ester], testing at 30 µg/mL in data set [2] gave an inhibition of 57%.
`c1cnc2c(c1)ccc1cccnc12` [1,10-phenanthroline]: in the data set with collagenase [1], the collagenase inhibition result is listed as “collagenase inhibitors”.
Consider `O[C@@H](CS)[C@@H](O)CS` [dithiothretol], for which, in the data set with collagenase [1], the collagenase inhibition entry is “collagenase inhibitors”.
In the case of `Cc1cc(-c2ccc(/N=N/c3c(S(=O)(=O)O)cc4cc(S(=O)(=O)O)cc(N)c4c3O)c(C)c2)ccc1/N=N/c1c(S(=O)(=O)O)cc2cc(S(=O)(=O)O)cc(N)c2c1O` [trypan blue], the “inhibiting the activity of collagenase” value with collagenase [4] was “inhibiting the activity of collagenase”.
`O=C(Nc1cccc(C(=O)Nc2ccc3cc(C(=O)O)cc(O)c3c2)c1)Nc1cccc(C(=O)Nc2ccc3cc(C(=O)O)cc(O)c3c2)c1` [6,6'-[Ureylenebis(m-phenylenecarbonylimino)]bis[4-hydroxy-2-naphthoic acid]] had an inhibition at 30 µg/mL in data set [2] of 92%.
With `Cc1ccc(C(=O)Nc2ccc(S(=O)(=O)O)c3cc(S(=O)(=O)O)cc(S(=O)(=O)O)c23)cc1NC(=O)c1cccc(NC(=O)Nc2cccc(C(=O)Nc3cc(C(=O)Nc4ccc(S(=O)(=O)O)c5cc(S(=O)(=O)O)cc(S(=O)(=O)O)c45)ccc3C)c2)c1` [Suramin], in the data set with collagenase [4], the “inhibiting the activity of collagenase” value is reported as “not inhibiting the action of collagenase”.
In the case of “α2 -macroglobulin: Naturally occurring collagenase inhibitors include the serum components α2 -macroglobulin and β1-anticollagenase”, the collagenase inhibition entry in the data set on collagenase [1] was “collagenase inhibitors”.
In the case of `N[C@@H](CS)C(=O)O` [cysteine], in the data set with collagenase [1], the collagenase inhibition result is on record as “collagenase inhibitors”. Also, the “treatment of acute and chronic corneal ulceration” value in the data set with corneal ulceration is on record as “effective”.
